# From US6136327A, “Stereospecific delivery of a drug using electrotransport” (priority 1997, dated 2000)
# Legend:
# clinical = conditions: in vivo; for AUC(0-inf): AUCinf
# Protocol: A study was performed in order to compare the pharmacokinetic parameters of R- and S-ketorolac following intravenous, passive transdermal and electrotransport administration of a racemic mixture of ketorolac.
# Twelve healthy male volunteers were enrolled in a pilot feasibility study. Subjects were required to undergo a pre-study screening to evaluate whether they met study inclusion or exclusion criteria. Screening procedures included a medical history, physical exam, electrocardiogram and clinical laboratory tests.
# The study was an open-label, randomized, three-treatment crossover pharmacokinetics study designed to compare plasma ketorolac concentrations during 24-hour treatment regimens with an electrotransport system ("ETS"), a (passive) therapeutic transdermal system ("TTS") and intravenous ketorolac bolus injection.
# The ketorolac treatments are listed below; there was a washout period of at least 6 days between treatments.
# During the ETS (ketorolac) treatment, each subject was expected to receive an estimated 26 mg of ketorolac free acid over a 24-hour period, delivered by electrotransport from a total cathode area of 18 cm^2, based on an estimated in vitro flux rate of 60 μg/cm^2 /h.
# Three electrotransport systems, with a total cathode gel area of 18 cm^2, were applied to the upper arms of each subject in this study. Each of the three controllers was set to provide a total direct current of 0.6 mA, which maintained a current density of 100 μA/cm^2.
# During TTS treatment, each subject was expected to receive an estimated 50 mg of ketorolac free acid over a 24-hour period, delivered passively through the skin from a total application area of 75 cm^2 based on an estimated in vitro flux rate of 25 to 30 μg/cm^2 /h.
# The TTS systems were produced with a backing and protective liner in a 25 cm^2 size. The system formulation contained drug (free acid), ethylene vinyl acetate (40% vinyl acetate), glycerol monolaurate, and Ceraphyl® 31. Three TTS monoliths, with a total surface area of 75 cm^2, were used to deliver the drug. The combined systems contained 135 mg of ketorolac free acid. Because the systems were not self-adhesive, an adhesive overlay was required to ensure good skin contact.
# During the intravenous bolus treatment, each subject received a total of 24 mg of ketorolac free acid (36 mg of ketorolac tromethamine salt). Drug was delivered by IV bolus injections of 12 mg of ketorolac free acid (18 mg of ketorolac tromethamine salt) which were administered at Hour 0 and at Hour 12. A 1 mL aliquot of each ketorolac solution was retained directly after syringe preparation and prior to injection.
# Initially either the ETS or the TTS was applied, or the first intravenous injection was administered. ETS and TTS treatments continued for 24 hours, and the bolus treatment was completed after the second dose at 12 hours. Blood and urine samples were collected at intervals during a 48-hour period after initiation of each ketorolac treatment regimen.
# Blood samples, 7 mL each, were collected from each subject at intervals during the 48 hour period after initiation of treatment.
# Plasma levels of ketorolac were determined by HPLC assay, performed at the Clinical Pharmacology Division of the School of Medicine at Indiana University, Wishard Memorial Hospital, Indianapolis, Ind.
# Actual blood sample collection times were used for all calculations and data were summarized by nominal sampling times. Plasma ketorolac concentrations below the assay quantification limit of 20 ng/mL were assigned a value of zero.
# [1] = in vivo
# Protocol: The transport of the R- and S-isomers of ketorolac was evaluated using passive transdermal delivery and electrotransport, in a study conducted in healthy volunteers. Intravenous bolus administration of 24 mg racemic ketorolac served as the reference treatment. The relative amounts of R- and S-ketorolac absorbed following passive transdermal and electrotransport administration were determined relative to intravenous R- and S-ketorolac clearance (assuming that the racemic ketorolac contained equal amounts of the R- and S-isomers).
# [2] = in vivo; cited from earlier work
# [3] = transdermal; cited from earlier work
Compound,"Plasma Ketorolac Concentrations (clinical; human, 60 min) [ng/mL]","Plasma Ketorolac Concentrations (clinical; human, 90 min) [ng/mL]","Plasma Ketorolac Concentrations (clinical; human, 360 min) [ng/mL]","Plasma Ketorolac Concentrations (clinical; human, 480 min) [ng/mL]","Plasma Ketorolac Concentrations (clinical; human, 720 min) [ng/mL]","Plasma Ketorolac Concentrations (clinical; human, 960 min) [ng/mL]","Plasma Ketorolac Concentrations (clinical; human, 1680 min) [ng/mL]","AUC inf (clinical; human, iv) [ng·h/mL]","Apparent elimination rate constant (k) (clinical; human, iv) [h⁻¹]","C max (clinical; human, iv) [ng/mL]","K2 (elimination rate constant) (clinical; human, iv) [h⁻¹]","Volume (clinical; human, iv) [L]","Plasma Ketorolac Concentrations (clinical; human, iv, 720 min) [ng/mL]","Plasma Ketorolac Concentrations (clinical; human, iv, 14 h) [ng/mL]","AUC(0-inf) (clinical; human, iv) [ng·h/mL]","Amount Delivered (AD), ETS/IV (amount absorbed) (clinical; iv) [mg]","Amount Delivered (AD), TTS/IV (amount absorbed) (clinical; iv) [mg]",K1 (distribution rate constant) (clinical; iv) [h⁻¹],"clearance, R- vs S-ketorolac (clinical; iv)",other results
O=C(c1ccccc1)c1ccc2n1CC[C@H]2C(=O)O [R-ketorolac],0.0,0.0,0.0,0.0,0.0,0.0,0.0,6171,0.125,872,0.15,5.4,0.0,386.0,6250,7.9,4.96,1.54,differed,"Plasma Ketorolac Concentrations (clinical; human, 240 min): 0.0 ng/mL; Plasma Ketorolac Concentrations (clinical; human, 1920 min): 0.0 ng/mL; Plasma Ketorolac Concentrations (clinical; human, 2880 min): 0.0 ng/mL; AUC(0-inf) (clinical; human): 5640 ng·h/mL; Apparent half-life (t1/2) (clinical; human, iv): 4.3 h; k el (clinical; human, iv, Apparent elimination rate constant (k)): 3.89e-05 s⁻¹; half-life (clinical; human, iv, Apparent half-life (t1/2)): 5 h; Plasma Ketorolac Concentrations (clinical; human, topical or ocular, 1.5 h): 37.0 ng/mL; Plasma Ketorolac Concentrations (clinical; human, topical or ocular, 12 h): 67.0 ng/mL; Plasma Ketorolac Concentrations (clinical; human, topical or ocular, 20 h): 29.0 ng/mL; Plasma Ketorolac Concentrations (clinical; human, topical or ocular, 24.5 h): 211.0 ng/mL; plasma concentrations during TTS compared with ETS (clinical): lower than those observed during ETS administration; T max (clinical; iv): 0.5 h"
O=C(c1ccccc1)c1ccc2n1CC[C@@H]2C(=O)O [S-ketorolac],0.0,0.0,0.0,0.0,0.0,0.0,0.0,1566,0.41,404,0.35,10.33,0.0,113.0,1560,11.65,4.76,2.10,differed,"Plasma Ketorolac Concentrations (clinical; human, 1200 min): 0.0 ng/mL; Plasma Ketorolac Concentrations (clinical; human, 1440 min): 0.0 ng/mL; Plasma Ketorolac Concentrations (clinical; human, 1470 min): 0.0 ng/mL; Plasma Ketorolac Concentrations (clinical; human, 1500 min): 0.0 ng/mL; Plasma Ketorolac Concentrations (clinical; human, 1560 min): 0.0 ng/mL; T max (clinical; human, iv): 0.5 h; Plasma Ketorolac Concentrations (clinical; human, iv, 240 min): 0.0 ng/mL; Plasma Ketorolac Concentrations (clinical; human, iv, 360 min): 0.0 ng/mL; Plasma Ketorolac Concentrations (clinical; human, iv, 480 min): 0.0 ng/mL; Plasma Ketorolac Concentrations (clinical; human, iv, 1080 min): 0.0 ng/mL; Plasma Ketorolac Concentrations (clinical; human, iv, 1200 min): 0.0 ng/mL; Plasma Ketorolac Concentrations (clinical; human, iv, 1440 min): 0.0 ng/mL; Plasma Ketorolac Concentrations (clinical; human, topical or ocular, 16 h): 58.0 ng/mL; Plasma Ketorolac Concentrations (clinical; human, topical or ocular, 28 h): 21.0 ng/mL; S/R ratio of amount absorbed, mean [1]: 1.15; S/R ratio of amount absorbed, median [1]: 1.18; S/R ratio of amount absorbed, range [1]: 0.8-1.43; clearance vs other enantiomer [2]: more rapid clearance than the other enantiomer"
phenylpropanolamine,–,–,–,–,–,–,–,–,–,–,–,–,–,–,–,–,–,–,–,flux rates of individual purified isomers [3]: nearly identical flux rates
